Measurements published in patent US9617256B2 (priority 2007, dated 2017).
Converted amounts (≈) assume the structure as drawn. Like-named read-outs stand apart in the source and are kept apart here.

Tests used:
[1] = tested on: AECO001 (ATCC25922); assay: MIC broth microdilution, AECO001; format: cell-based, E. coli; conditions: for MIC: Escherichia coli
Method in brief: (§1)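 Inocula prepared from 0.5 McFarland suspensions (final 3×10^5–7×10^5 CFU/mL) were added to 2-fold drug dilution series in cation-adjusted Mueller-Hinton broth. Plates stood 18-24 hours at 35° C. under ambient air.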

[2] = tested on: AECO063 (ATCC25922 bearing an acrAB mutation); assay: microbe, parasite or virus in culture; format: cell-based, E. coli; conditions: Escherichia coli, ATCC25922, read-out: MIC AECO063
Method in brief: as §1

[3] = tested on: APAE001 (ATCC27853); assay: MIC broth microdilution, APAE001; format: cell-based, P. aeruginosa; conditions: Pseudomonas aeruginosa, ATCC27853, read-out: MIC APAE001, APAE001 (ATCC27853)
Method in brief: as §1

[4] = tested on: APAE006 (strain of P. aeruginosa in which all efflux pumps are inactivated); assay: microbe, parasite or virus in culture; format: cell-based; conditions: Pseudomonas aeruginosa, read-out: MIC APAE006, APAE006, all efflux pumps inactivated
Method in brief: (§2)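 (ambient air) in cation-adjusted MHB; inoculum from 0.5 McFarland suspensions, final 3×10^5–7×10^5 CFU/mL; 2-fold serial drug dilutions per CLSI. APAE006: P. aeruginosa with all efflux pumps inactivated.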

[5] = tested on: APAE006 in the presence of 8 micrograms per milliliter of polymyxin B nonapeptide; format: cell-based, P. aeruginosa; conditions: APAE006 with 8 micrograms per milliliter polymyxin B nonapeptide
Method in brief: as §2

[6] = tested on: AABA1060 (clinical isolate of Acinetobacter baumannii); assay: MIC broth microdilution, AABA1060; format: cell-based; conditions: Acinetobacter baumannii, read-out: MIC AABA1060
Method in brief: as §1

[7] = tested on: ASAU001 (laboratory strain of S. aureus, ATCC29213); assay: MIC broth microdilution, ASAU001; format: cell-based; conditions: Staphylococcus aureus, ATCC29213, read-out: MIC ASAU001
Method in brief: as §1

[8] = ATCC25922, read-out: MIC AECO001
[9] = ATCC25922, read-out: MIC AECO001 HSA AGP

Row | SMILES | MIC [1, 8] [µg/mL] | MIC [1, 9] [µg/mL] | MIC [2] [µg/mL] | MIC [3] [µg/mL] | MIC [4] [µg/mL] | MIC APAE006 + PMBN [5] | MIC [6] [µg/mL] | MIC [7] [µg/mL] | Ratio of MICs on AECO001 [Cpd (A = —CHCH3NH2)/Cpd (A = —C(CH3)2NH2)] ([1]; MIC of paired compound with A = —CHCH3NH2 divided by MIC of compound with A = —C(CH3)2NH2, n=2 data, pairs identical except for the A moiety)
1 | CC(C)(N)[C@H](NC(=O)c1ccc(C#CC#Cc2ccc(F)cc2)cc1)C(=O)NO [Example 82-28] | < 2 | 2 to 16 (≈ 5.08 to 40.7 µM) | < 2 | 2 to 16 (≈ 5.08 to 40.7 µM) | < 2 | A (MIC's of 2.0 μg/mL or less = A) | < 2 | 2 to 16 (≈ 5.08 to 40.7 µM) | 
2 | C[C@@H](O)[C@H](NC(=O)c1ccc(C#CC#Cc2cccc(F)c2)cc1)C(=O)NO [Example 82-18] | < 2 | 2 to 16 (≈ 5.26 to 42.1 µM) | < 2 | 2 to 16 (≈ 5.26 to 42.1 µM) | < 2 | A (MIC's of 2.0 μg/mL or less = A) | 16 to 64 (≈ 42.1 to 168 µM) | 16 to 64 (≈ 42.1 to 168 µM) | 
3 | NC[C@H](NC(=O)c1ccc(C#Cc2ccc(CNC(=O)CCC(=O)O)cc2)cc1)C(=O)NO [Example 137-11] | > 64 | > 64 | 16 to 64 (≈ 35.4 to 141 µM) | 16 to 64 (≈ 35.4 to 141 µM) | 2 to 16 (≈ 4.42 to 35.4 µM) | B (MIC's of greater than 2.0 μg/mL to 16.0 μg/mL = B) | > 64 | > 64 | 
4 | CC(C)(O)[C@H](NC(=O)c1ccc(C#CC#Cc2ccc(N)cc2)cc1)C(=O)NO [Example 82-17] | < 2 | < 2 | < 2 | < 2 | < 2 | A (MIC's of 2.0 μg/mL or less = A) | < 2 | 2 to 16 (≈ 5.11 to 40.9 µM) | 
5 | COc1ccc(C#CC#Cc2ccc(C(=O)N[C@H](C(=O)NO)[C@@H](C)N)cc2)cc1 [Example 82-1, N-((1S,2R)-2-Amino-1-hydroxycarbamoyl-propyl)-4-[4-(4-methoxy-phenyl)-buta-1,3-diynyl]-benzamide] | < 2 | 2 to 16 (≈ 5.11 to 40.9 µM) | < 2 | 2 to 16 (≈ 5.11 to 40.9 µM) | < 2 | A (MIC's of 2.0 μg/mL or less = A) | 2 to 16 (≈ 5.11 to 40.9 µM) | 16 to 64 (≈ 40.9 to 164 µM) | 
6 | C[C@@H](N)[C@H](NC(=O)c1ccc(C#CC#Cc2ccc(NS(C)(=O)=O)cc2)cc1)C(=O)NO [Example 93-1, N-((2S,3R)-3-amino-1-(hydroxyamino)-1-oxobutan-2-yl)-4-((4-(methylsulfonamido)phenyl)buta-1,3-diynyl)benzamide] | < 2 | 16 to 64 (≈ 35.2 to 141 µM) | < 2 | < 2 | < 2 | A (MIC's of 2.0 μg/mL or less = A) | < 2 | 16 to 64 (≈ 35.2 to 141 µM) | 
7 | NC[C@H](NC(=O)C#Cc1ccc(C#CCN2CCOCC2)cc1)C(=O)NO [Example 137-10] | > 64 | > 64 | > 64 | > 64 | 16 to 64 (≈ 43.2 to 173 µM) | C (MIC's of greater than 16.0 μg/mL to 64.0 μg/mL = C) | > 64 | > 64 | 
8 | C[C@@H](N)[C@H](NC(=O)c1ccc(C#CC#CCC2CCCC2)cc1)C(=O)NO [Example 91-25] | 16 to 64 (≈ 43.5 to 174 µM) | 16 to 64 (≈ 43.5 to 174 µM) | 16 to 64 (≈ 43.5 to 174 µM) | 16 to 64 (≈ 43.5 to 174 µM) | 2 to 16 (≈ 5.44 to 43.5 µM) | B (MIC's of greater than 2.0 μg/mL to 16.0 μg/mL = B) | 16 to 64 (≈ 43.5 to 174 µM) | 16 to 64 (≈ 43.5 to 174 µM) | 
9 | CCC#CC#Cc1ccc(C(=O)N[C@H](C(=O)NO)[C@@H](C)N)cc1 [Example 91-7] | < 2 | 2 to 16 (≈ 6.38 to 51.1 µM) | < 2 | < 2 | < 2 | A (MIC's of 2.0 μg/mL or less = A) | 2 to 16 (≈ 6.38 to 51.1 µM) | 2 to 16 (≈ 6.38 to 51.1 µM) | 
10 | CC(C)CCC#CC#Cc1ccc(C(=O)N[C@H](C(=O)NO)[C@@H](C)N)cc1 [Example 91-28] | < 2 | 2 to 16 (≈ 5.63 to 45 µM) | < 2 | 2 to 16 (≈ 5.63 to 45 µM) | < 2 | A (MIC's of 2.0 μg/mL or less = A) | 2 to 16 (≈ 5.63 to 45 µM) | 2 to 16 (≈ 5.63 to 45 µM) | 
11 | CC(C)(N)[C@@H](NC(=O)c1ccc(C#Cc2ccc(CNC3CC3)cc2)cc1)C(=O)NO [Compound 121-2] | 2 to 16 (≈ 4.76 to 38 µM) | 16 to 64 (≈ 38 to 152 µM) | 2 to 16 (≈ 4.76 to 38 µM) | 16 to 64 (≈ 38 to 152 µM) | < 2 | A (MIC's of 2.0 μg/mL or less = A) | 16 to 64 (≈ 38 to 152 µM) | 16 to 64 (≈ 38 to 152 µM) | 
12 | CC(C)(O)[C@H](NC(=O)c1ccc(C#Cc2ccncc2)cc1)C(=O)NO [Example 133-15] | 2 to 16 (≈ 5.66 to 45.3 µM) | 2 to 16 (≈ 5.66 to 45.3 µM) | < 2 | 2 to 16 (≈ 5.66 to 45.3 µM) | < 2 | A (MIC's of 2.0 μg/mL or less = A) | 2 to 16 (≈ 5.66 to 45.3 µM) | 16 to 64 (≈ 45.3 to 181 µM) | 
13 | C[C@@H](N)[C@H](NC(=O)c1ccc(C#CC#Cc2ccc(O)cc2)cc1)C(=O)NO [Example 83-2] | < 2 | 16 to 64 (≈ 42.4 to 170 µM) | < 2 | < 2 | < 2 | A (MIC's of 2.0 μg/mL or less = A) | 2 to 16 (≈ 5.3 to 42.4 µM) | 16 to 64 (≈ 42.4 to 170 µM) | 
14 | CC(C)(N)[C@H](NC(=O)c1ccc(C#C/C=C/C2CC2)cc1)C(=O)NO [Example 107-4] | < 2 | < 2 | < 2 | < 2 | < 2 | A (MIC's of 2.0 μg/mL or less = A) | < 2 | 2 to 16 (≈ 5.86 to 46.9 µM) | 
15 | CC(C)(N)[C@H](NC(=O)c1ccc(C#CC#Cc2ccc(CNC3CC3)cc2)cc1)C(=O)NO [Example 87-4] | < 2 | 2 to 16 (≈ 4.5 to 36 µM) | < 2 | < 2 | < 2 | A (MIC's of 2.0 μg/mL or less = A) | < 2 | 16 to 64 (≈ 36 to 144 µM) | 
16 | CC(C)(N)[C@H](NC(=O)c1ccc(C#Cc2ccc(CNC3CC3)cc2)cc1)C(=O)NO [Example 121-1, N—((S)-2-Amino-1-hydroxycarbamoyl-2-methyl-propyl)-4-(4-cyclopropylaminomethyl-phenylethynyl)-benzamide] | < 2 | < 2 | < 2 | < 2 | < 2 | A (MIC's of 2.0 μg/mL or less = A) | 2 to 16 (≈ 4.76 to 38 µM) | 16 to 64 (≈ 38 to 152 µM) | 4.0
17 | CC(C)(N)[C@H](NC(=O)c1ccc(/C=C/C#CC2CC2)cc1)C(=O)NO [Example 114-18] | < 2 | 2 to 16 (≈ 5.86 to 46.9 µM) | < 2 | < 2 | < 2 | A (MIC's of 2.0 μg/mL or less = A) | < 2 | 16 to 64 (≈ 46.9 to 187 µM) | 
18 | CC(C)(N)[C@H](NC(=O)c1ccc(C#CC#Cc2cncnc2)cc1)C(=O)NO [Example 89-6] | 2 to 16 (≈ 5.3 to 42.4 µM) | 2 to 16 (≈ 5.3 to 42.4 µM) | < 2 | < 2 | < 2 | A (MIC's of 2.0 μg/mL or less = A) | 2 to 16 (≈ 5.3 to 42.4 µM) | 16 to 64 (≈ 42.4 to 170 µM) | 
19 | C[C@@H](O)[C@H](NC(=O)c1ccc(/C=C/C#Cc2ccc(F)cc2)cc1)C(=O)NO [Example 114-11] | < 2 | 16 to 64 (≈ 41.8 to 167 µM) | < 2 | 16 to 64 (≈ 41.8 to 167 µM) | < 2 | A (MIC's of 2.0 μg/mL or less = A) | 2 to 16 (≈ 5.23 to 41.8 µM) | 16 to 64 (≈ 41.8 to 167 µM) | 
20 | COCCNCc1ccc(C#Cc2ccc(C(=O)N[C@H](C(=O)NO)[C@@H](C)N)cc2)cc1 [Example 122-1, N-((1S,2R)-2-Amino-1-hydroxycarbamoyl-propyl)-4-{4-[(2-methoxy-ethylamino)-methyl]-phenylethynyl}-benzamide] | 2 to 16 (≈ 4.71 to 37.7 µM) | 2 to 16 (≈ 4.71 to 37.7 µM) | < 2 | 2 to 16 (≈ 4.71 to 37.7 µM) | < 2 | A (MIC's of 2.0 μg/mL or less = A) | 16 to 64 (≈ 37.7 to 151 µM) | 16 to 64 (≈ 37.7 to 151 µM) | 
21 | C[C@@H](N)[C@H](NC(=O)c1ccc(C#C/C=C/C2CC2)cc1)C(=O)NO [Example 107-2] | < 2 | 2 to 16 (≈ 6.11 to 48.9 µM) | < 2 | < 2 | < 2 | A (MIC's of 2.0 μg/mL or less = A) | < 2 | 2 to 16 (≈ 6.11 to 48.9 µM) | 
22 | C[C@@H](O)[C@H](NC(=O)c1ccc(C#CC#Cc2ccc(F)cc2)cc1)C(=O)NO [Example 82-23] | < 2 | 16 to 64 (≈ 42.1 to 168 µM) | < 2 | 16 to 64 (≈ 42.1 to 168 µM) | < 2 | A (MIC's of 2.0 μg/mL or less = A) | 16 to 64 (≈ 42.1 to 168 µM) | 16 to 64 (≈ 42.1 to 168 µM) | 
23 | CCOCc1ccc(C#Cc2ccc(C(=O)N[C@H](C(=O)NO)C(C)(C)N)cc2)cc1 [Example 126-1, N—((S)-2-Amino-1-hydroxycarbamoyl-2-methyl-propyl)-4-(4-ethoxymethyl-phenylethynyl)-benzamide] | < 2 | < 2 | < 2 | < 2 | < 2 | A (MIC's of 2.0 μg/mL or less = A) | < 2 | 16 to 64 (≈ 39.1 to 156 µM) | 
